What was measured:
Assay type in all cases: in vivo
[1] = test system: bedstraw (Galium aparine); assay: Test B pre-/postemergence; set-up: key: 0 is no effect; 10 is complete control
Method in brief: (§1)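 Scored visually 0 (none) to 10 (complete control) against untreated plants after twelve to sixteen greenhouse days. Test chemicals, formulated in surfactant-containing non-phytotoxic solvent, applied to soil after planting and, separately, onto 1- to 4-leaf (2–18 cm) plants.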

[2] = test system: broadleaf signalgrass (Brachiaria decumbens); assay: Test B pre-/postemergence; set-up: key: 0 is no effect; 10 is complete control
Method in brief: as §1

[3] = test system: giant foxtail (Setaria faberii); assay: Test B pre-/postemergence; set-up: key: 0 is no effect; 10 is complete control
Method in brief: as §1

[4] = test system: momingglory (Ipomoea hederacea); assay: Test B pre-/postemergence; set-up: key: 0 is no effect; 10 is complete control
Method in brief: as §1

wild oat (Avena fatua) = assay: Test B pre-/postemergence; set-up: key: 0 is no effect; 10 is complete control
Method in brief: as §1

[5] = test system: cocklebur (Xanthium strumarium); assay: Test C; set-up: key: 0 was no effect; 100 was complete control; settings: PREEMERGENCE
[6] = test system: common ragweed (Ambrosia elatior); assay: Test C; set-up: key: 0 was no effect; 100 was complete control; settings: PREEMERGENCE
corn (Zea mays) = assay: Test C; set-up: key: 0 was no effect; 100 was complete control; settings: PREEMERGENCE
[7] = test system: cotton (Gossypium hirsutum); assay: Test C; set-up: key: 0 was no effect; 100 was complete control; settings: PREEMERGENCE
[8] = test system: giant foxtail (Setaria faberii); assay: Test C; set-up: key: 0 was no effect; 100 was complete control; settings: PREEMERGENCE
[9] = test system: ladysthumb smartweed (Polygonum persicaria); assay: Test C; settings: PREEMERGENCE
[10] = test system: surinam grass (Brachiaria decumbens); assay: Test C; set-up: key: 0 was no effect; 100 was complete control; settings: PREEMERGENCE
[11] = test system: velvetleaf (Abutilon theophrasti); assay: Test C; set-up: key: 0 was no effect; 100 was complete control; settings: PREEMERGENCE

COc1cnc(-c2ccc(C(F)(F)F)cc2)nc1Cc1cccc(C(F)(F)F)c1 [Compound 23]
Plant response rating, Bedstraw ([1]; Rate 62 g/ha, Postemergence): 9
Plant response rating, Bedstraw ([1]; Rate 125 g/ha, Postemergence): 9
Bedstraw plant response rating ([1]; Rate 125 g/ha, Preemergence): 8
Plant response rating, Bedstraw ([1]; Rate 250 g/ha, Postemergence): 9
Plant response rating, Bedstraw ([1]; Rate 250 g/ha, Preemergence): 9
Plant response rating, B. signalgrass ([2]; Rate 62 g/ha, Postemergence): 4
B. signalgrass plant response rating ([2]; Rate 62 g/ha, Preemergence): 9
Plant response rating, B. signalgrass ([2]; Rate 125 g/ha, Postemergence): 5
B. signalgrass plant response rating ([2]; Rate 125 g/ha, Preemergence): 9
Plant response rating, B. signalgrass ([2]; Rate 250 g/ha, Postemergence): 9
Plant response rating, B. signalgrass ([2]; Rate 250 g/ha, Preemergence): 9
Plant response rating, Giant foxtail ([3]; Rate 62 g/ha, Postemergence): 2
Giant foxtail plant response rating ([3]; Rate 62 g/ha, Preemergence): 10
Plant response rating, Giant foxtail ([3]; Rate 125 g/ha, Postemergence): 5
Giant foxtail plant response rating ([3]; Rate 125 g/ha, Preemergence): 10
Plant response rating, Giant foxtail ([3]; Rate 250 g/ha, Postemergence): 9
Plant response rating, Giant foxtail ([3]; Rate 250 g/ha, Preemergence): 10
Plant response rating, Morningglory ([4]; Rate 62 g/ha, Postemergence): 6
Morningglory plant response rating ([4]; Rate 62 g/ha, Preemergence): 4
Plant response rating, Morningglory ([4]; Rate 125 g/ha, Postemergence): 9
Morningglory plant response rating ([4]; Rate 125 g/ha, Preemergence): 8
Plant response rating, Morningglory ([4]; Rate 250 g/ha, Postemergence): 9
Plant response rating, Morningglory ([4]; Rate 250 g/ha, Preemergence): 10
Plant response rating, Wild oats (wild oat (Avena fatua); Rate 62 g/ha, Postemergence): 5
Wild oats plant response rating (wild oat (Avena fatua); Rate 62 g/ha, Preemergence): 7
Plant response rating, Wild oats (wild oat (Avena fatua); Rate 125 g/ha, Postemergence): 6
Wild oats plant response rating (wild oat (Avena fatua); Rate 125 g/ha, Preemergence): 8
Plant response rating, Wild oats (wild oat (Avena fatua); Rate 250 g/ha, Postemergence): 9
Plant response rating, Wild oats (wild oat (Avena fatua); Rate 250 g/ha, Preemergence): 9
Plant response rating, Cocklebur ([5]; Rate 140 g/ha): 5
Plant response rating, Common ragweed ([6]; Rate 35 g/ha): 10
Plant response rating, Common ragweed ([6]; Rate 70 g/ha): 30
Plant response rating, Common ragweed ([6]; Rate 140 g/ha): 90
Plant response rating, Corn (corn (Zea mays); Rate 35 g/ha): 0
Plant response rating, Corn (corn (Zea mays); Rate 70 g/ha): 0
Plant response rating, Corn (corn (Zea mays); Rate 140 g/ha): 5
Plant response rating, Cotton ([7]; Rate 35 g/ha): 5
Plant response rating, Cotton ([7]; Rate 70 g/ha): 75
Plant response rating, Cotton ([7]; Rate 140 g/ha): 75
Plant response rating, Giant foxtail ([8]; Rate 35 g/ha): 85
Plant response rating, Giant foxtail ([8]; Rate 70 g/ha): 100
Plant response rating, Giant foxtail ([8]; Rate 140 g/ha): 100
Plant response rating, Ladysthumb ([9]; Rate 35 g/ha): 5
Plant response rating, Ladysthumb ([9]; Rate 70 g/ha): 80
Plant response rating, Ladysthumb ([9]; Rate 140 g/ha): 80
Plant response rating, Surinam grass ([10]; Rate 35 g/ha): 5
Plant response rating, Surinam grass ([10]; Rate 70 g/ha): 45
Plant response rating, Surinam grass ([10]; Rate 140 g/ha): 60
Plant response rating, Velvetleaf ([11]; Rate 35 g/ha): 50
Plant response rating, Velvetleaf ([11]; Rate 140 g/ha): 50

Cc1cnc(-n2ccc(C(F)(F)F)n2)nc1Cc1cccc(C(F)(F)F)c1 [Example 2, 5-methyl-4-[[3-(trifluoromethyl)phenyl]methyl]-2-[3-(trifluoromethyl)-1H-pyrazol-1-yl]pyrimidine]
Plant response rating, Bedstraw ([1]; Rate 62 g/ha, Postemergence): 9
Bedstraw plant response rating ([1]; Rate 62 g/ha, Preemergence): 10
Plant response rating, Bedstraw ([1]; Rate 125 g/ha, Postemergence): 9
Bedstraw plant response rating ([1]; Rate 125 g/ha, Preemergence): 10
Plant response rating, Bedstraw ([1]; Rate 250 g/ha, Postemergence): 9
Plant response rating, Bedstraw ([1]; Rate 250 g/ha, Preemergence): 10
Plant response rating, Bedstraw ([1]; Rate 500 g/ha, Postemergence): 9
Plant response rating, Bedstraw ([1]; Rate 500 g/ha, Preemergence): 10
Plant response rating, Giant foxtail ([3]; Rate 62 g/ha, Postemergence): 7
Giant foxtail plant response rating ([3]; Rate 62 g/ha, Preemergence): 10
Plant response rating, Giant foxtail ([3]; Rate 125 g/ha, Postemergence): 9
Giant foxtail plant response rating ([3]; Rate 125 g/ha, Preemergence): 10
Plant response rating, Giant foxtail ([3]; Rate 250 g/ha, Postemergence): 9
Plant response rating, Giant foxtail ([3]; Rate 250 g/ha, Preemergence): 10
Plant response rating, Giant foxtail ([3]; Rate 500 g/ha, Postemergence): 10
Plant response rating, Giant foxtail ([3]; Rate 500 g/ha, Preemergence): 10
Plant response rating, Morningglory ([4]; Rate 62 g/ha, Postemergence): 8
Morningglory plant response rating ([4]; Rate 62 g/ha, Preemergence): 7
Plant response rating, Morningglory ([4]; Rate 125 g/ha, Postemergence): 9
Morningglory plant response rating ([4]; Rate 125 g/ha, Preemergence): 9
Plant response rating, Morningglory ([4]; Rate 250 g/ha, Postemergence): 9
Plant response rating, Morningglory ([4]; Rate 250 g/ha, Preemergence): 10
Plant response rating, Morningglory ([4]; Rate 500 g/ha, Postemergence): 9
Plant response rating, Morningglory ([4]; Rate 500 g/ha, Preemergence): 10
Plant response rating, Wild oats (wild oat (Avena fatua); Rate 62 g/ha, Postemergence): 3
Wild oats plant response rating (wild oat (Avena fatua); Rate 62 g/ha, Preemergence): 6
Plant response rating, Wild oats (wild oat (Avena fatua); Rate 125 g/ha, Postemergence): 3
Wild oats plant response rating (wild oat (Avena fatua); Rate 125 g/ha, Preemergence): 9
Plant response rating, Wild oats (wild oat (Avena fatua); Rate 250 g/ha, Postemergence): 6
Plant response rating, Wild oats (wild oat (Avena fatua); Rate 250 g/ha, Preemergence): 9
Plant response rating, Wild oats (wild oat (Avena fatua); Rate 500 g/ha, Postemergence): 7
Plant response rating, Wild oats (wild oat (Avena fatua); Rate 500 g/ha, Preemergence): 10
Plant response rating, Cocklebur ([5]; Rate 35 g/ha): 0
Plant response rating, Cocklebur ([5]; Rate 140 g/ha): 10
Plant response rating, Common ragweed ([6]; Rate 35 g/ha): 0
Plant response rating, Common ragweed ([6]; Rate 70 g/ha): 0
Plant response rating, Common ragweed ([6]; Rate 140 g/ha): 50
Plant response rating, Corn (corn (Zea mays); Rate 35 g/ha): 0
Plant response rating, Corn (corn (Zea mays); Rate 70 g/ha): 0
Plant response rating, Corn (corn (Zea mays); Rate 140 g/ha): 30
Plant response rating, Cotton ([7]; Rate 35 g/ha): 0
Plant response rating, Cotton ([7]; Rate 70 g/ha): 5
Plant response rating, Cotton ([7]; Rate 140 g/ha): 15
Plant response rating, Giant foxtail ([8]; Rate 35 g/ha): 0
Plant response rating, Giant foxtail ([8]; Rate 70 g/ha): 5
Plant response rating, Giant foxtail ([8]; Rate 140 g/ha): 100
Plant response rating, Ladysthumb ([9]; Rate 70 g/ha): 30
Plant response rating, Surinam grass ([10]; Rate 35 g/ha): 0
Plant response rating, Surinam grass ([10]; Rate 70 g/ha): 10
Plant response rating, Surinam grass ([10]; Rate 140 g/ha): 35
Plant response rating, Velvetleaf ([11]; Rate 35 g/ha): 0
Plant response rating, Velvetleaf ([11]; Rate 70 g/ha): 5
Plant response rating, Velvetleaf ([11]; Rate 140 g/ha): 50

Source: patent US6525001B1, “Substituted pyrimidine and pyridine herbicides” (Mid-American Commercialization Corporation, priority 1997, dated 2003)
